One data set concerns the target T1, NPR-B (Mus musculus, UniProt Q6VVW5).
T1 construct: Murine NIH3T3 cells express endogenously the CNP signaling receptor, NPR-B; endogenous in cells; host or cells: NIH3T3 (murine fibroblasts)
T1 sequence (Q6VVW5 17-1047): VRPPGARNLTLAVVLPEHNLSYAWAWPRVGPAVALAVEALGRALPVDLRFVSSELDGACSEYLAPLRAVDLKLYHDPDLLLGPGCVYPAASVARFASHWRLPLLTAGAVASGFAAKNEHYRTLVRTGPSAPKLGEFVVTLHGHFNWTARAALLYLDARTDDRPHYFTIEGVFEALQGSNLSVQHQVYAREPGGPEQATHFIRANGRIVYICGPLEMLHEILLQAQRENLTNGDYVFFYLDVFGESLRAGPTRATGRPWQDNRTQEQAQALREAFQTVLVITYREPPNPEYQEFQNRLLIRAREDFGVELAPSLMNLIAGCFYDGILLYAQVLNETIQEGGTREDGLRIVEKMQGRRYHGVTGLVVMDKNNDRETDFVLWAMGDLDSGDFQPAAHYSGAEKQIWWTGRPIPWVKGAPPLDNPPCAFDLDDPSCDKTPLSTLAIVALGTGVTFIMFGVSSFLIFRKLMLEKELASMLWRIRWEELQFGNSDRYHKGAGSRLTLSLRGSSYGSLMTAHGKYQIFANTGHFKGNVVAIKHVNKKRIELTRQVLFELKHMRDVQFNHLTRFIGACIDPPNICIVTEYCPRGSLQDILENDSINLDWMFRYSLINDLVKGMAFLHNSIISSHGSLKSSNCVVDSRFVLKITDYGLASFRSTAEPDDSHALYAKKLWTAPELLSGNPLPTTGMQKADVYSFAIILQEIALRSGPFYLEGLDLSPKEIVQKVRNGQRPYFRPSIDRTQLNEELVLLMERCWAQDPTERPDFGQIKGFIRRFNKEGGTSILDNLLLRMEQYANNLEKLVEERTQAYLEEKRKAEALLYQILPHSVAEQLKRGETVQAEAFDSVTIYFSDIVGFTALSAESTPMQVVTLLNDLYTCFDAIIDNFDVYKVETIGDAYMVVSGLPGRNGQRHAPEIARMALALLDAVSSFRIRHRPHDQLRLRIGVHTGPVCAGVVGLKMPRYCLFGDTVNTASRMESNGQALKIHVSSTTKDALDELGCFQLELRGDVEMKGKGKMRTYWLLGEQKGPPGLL
The data set is described as follows: Stimulation of cGMP production in NIH3T3 cells. The format is cell-based, Murine. To be noted: for cGMP response relative to 1 uM CNP22 (%) at 0.01 µM: read-out: cGMP Response rel. to 1 uM CNP22, 10 nM; for cGMP response relative to 1 uM CNP22 (%) at 1 µM: read-out: cGMP Response rel. to 1 uM CNP22, 1 uM.

Data set [1] addresses neutral endopeptidase (NEP) (Homo sapiens, UniProt P08473). The data set is described as follows: In vitro neutral endopeptidase (NEP) cleavage assay. To be noted: human, pH 7. The method, then:
To determine the effects of amino acid substitutions, amino acid extensions, backbone modifications, side chain modifications and PEGylation on the susceptibility of CNP variants to neutral endopeptidase (NEP) cleavage, peptide cleavage assays were carried out using an in vitro assay that monitored disappearance of the non-cleaved CNP variant.
Recombinant human NEP (1 ug/mL final concentration) was added to 100 uM CNP variant diluted in 0.1 M Tris, pH 7. The reaction mixture was incubated at 37° C. for various periods of time, and the reaction was quenched with EDTA (10 mM final) followed by heat denaturation. The reaction mixture was reduced and then the reaction products were analyzed using HPLC and mass spectroscopy. The half-life of the CNP variant was calculated based on the disappearance of intact CNP variant over time.

The mark [2] stands for this setting: NIH3T3 cells, 10 nM natriuretic peptide, normalized to cell number and cGMP production with 1 uM wtCNP22.
[3] abbreviates: NIH3T3 cells, 1 uM natriuretic peptide, normalized to cell number and cGMP production with 1 uM wtCNP22.

Molecules are shown by their SMILES. Where two headings read alike, the source gives them in different places. Bridge positions count the residues as written; N and C are the ends. Peptide text beside a SMILES is read from it. * marks the point of attachment. Heptanoyl = CCCCCCC(=O)*

Sequence of neutral endopeptidase (NEP) (P08473 whole entry): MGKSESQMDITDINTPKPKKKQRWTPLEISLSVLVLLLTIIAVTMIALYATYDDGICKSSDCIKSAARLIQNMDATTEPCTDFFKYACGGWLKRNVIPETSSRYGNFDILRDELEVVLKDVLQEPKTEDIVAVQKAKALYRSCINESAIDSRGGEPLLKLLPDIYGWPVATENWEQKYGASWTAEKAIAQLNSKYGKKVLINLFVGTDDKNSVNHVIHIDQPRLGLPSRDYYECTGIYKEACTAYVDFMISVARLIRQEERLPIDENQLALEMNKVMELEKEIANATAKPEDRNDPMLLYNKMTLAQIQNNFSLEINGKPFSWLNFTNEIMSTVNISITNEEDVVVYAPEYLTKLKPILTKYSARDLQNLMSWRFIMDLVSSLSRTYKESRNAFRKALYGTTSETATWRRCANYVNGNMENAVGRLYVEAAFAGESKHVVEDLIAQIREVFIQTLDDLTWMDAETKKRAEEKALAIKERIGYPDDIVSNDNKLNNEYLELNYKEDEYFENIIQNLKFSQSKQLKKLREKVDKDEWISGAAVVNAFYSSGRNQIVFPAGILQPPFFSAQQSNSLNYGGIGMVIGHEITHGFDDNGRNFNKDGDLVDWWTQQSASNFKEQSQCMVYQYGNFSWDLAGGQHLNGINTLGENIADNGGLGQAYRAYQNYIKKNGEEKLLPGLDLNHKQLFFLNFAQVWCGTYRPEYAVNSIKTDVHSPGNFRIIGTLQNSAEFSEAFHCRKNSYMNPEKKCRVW

Consider `CC[C@H](C)[C@@H]1NC(=O)[C@H](CCCNC(=N)N)NC(=O)[C@H](CC(=O)O)NC(=O)[C@H](CC(C)C)NC(=O)[C@H](CCCCN)NC(=O)[C@H](CC(C)C)NC(=O)CNC(=O)[C@H](Cc2ccccc2)NC(=O)[C@@H](NC(=O)CNC(=O)[C@H](CCC(=O)O)NC(=O)[C@H](CO)NC(=O)[C@H](CC(C)C)NC(=O)[C@@H](N)CCC(=O)O)CSSC[C@@H](C(=O)O)NC(=O)CNC(=O)[C@H](CC(C)C)NC(=O)CNC(=O)[C@H](CO)NC(=O)[C@H](CCSC)NC(=O)[C@H](CO)NC(=O)CNC1=O` [AT] (H-ELSEGCFGLKLDRIGSMSGLGC-OH; disulfide 6-22 (inferred); N-terminus and C-terminus assumed), for which, on NPR-B (setting [2]), the cGMP response relative to 1 uM CNP22 (%) at 0.01 µM is 11%. Also, on NPR-B (setting [3]), the cGMP response relative to 1 uM CNP22 (%) at 1 µM is 54%. Further, the half-life at 100 uM in data set [1] (recombinant human neutral endopeptidase (NEP)) was determined as 1 h.
`CC[C@H](C)[C@@H]1NC(=O)[C@H](CCCNC(=N)N)NC(=O)[C@H](CC(=O)O)NC(=O)[C@H](CC(C)C)NC(=O)[C@H](CCCCN)NC(=O)[C@H](CC(C)C)NC(=O)CNC(=O)[C@H](Cc2ccccc2)NC(=O)[C@@H](NC(=O)CNC(=O)[C@H](CCCNC(=N)N)NC(=O)[C@H](CO)NC(=O)[C@H](CC(C)C)NC(=O)CNC(=O)[C@H](CCCNC(=N)N)NC(=O)[C@H](CCCNC(=N)N)NC(=O)[C@H](CC(N)=O)NC(=O)[C@H](C)NC(=O)CN)CSSC[C@@H](C(=O)O)NC(=O)CNC(=O)[C@H](CC(C)C)NC(=O)CNC(=O)[C@H](CO)NC(=O)[C@H](CCSC)NC(=O)[C@H](CO)NC(=O)CNC1=O` [AY] (H-GANRRGLSRGCFGLKLDRIGSMSGLGC-OH; disulfide 11-27 (inferred); N-terminus and C-terminus assumed): the cGMP response relative to 1 uM CNP22 (%) at 0.01 µM on NPR-B (setting [2]) worked out at 59 ± 9%. Moreover, the cGMP response relative to 1 uM CNP22 (%) at 1 µM at NPR-B (setting [3]) stood at 105 ± 20%. For the same compound, in data set [1], the half-life at 100 uM was determined as 1.08 h.
`CC[C@H](C)[C@@H]1NC(=O)[C@H](CCCNC(=N)N)NC(=O)[C@H](CC(=O)O)NC(=O)[C@H](CC(C)C)NC(=O)[C@H](CCCCN)NC(=O)[C@H](CC(C)C)NC(=O)CNC(=O)[C@H](Cc2ccccc2)NC(=O)[C@@H](NC(=O)CNC(=O)[C@H](CCCNC(=N)N)NC(=O)[C@H](CO)NC(=O)[C@H](CC(C)C)NC(=O)CNC(=O)[C@@H](N)CCCNC(=N)N)CSSC[C@@H](C(=O)O)NC(=O)CNC(=O)[C@H](CC(C)C)NC(=O)CNC(=O)[C@H](CO)NC(=O)[C@H](CCSC)NC(=O)[C@H](CO)NC(=O)CNC1=O` [AZ] (H-RGLSRGCFGLKLDRIGSMSGLGC-OH; disulfide 7-23 (inferred); N-terminus and C-terminus assumed): the cGMP response relative to 1 uM CNP22 (%) at 0.01 µM on NPR-B (setting [2]) was determined as 54 ± 11%. Further, the cGMP response relative to 1 uM CNP22 (%) at 1 µM on NPR-B (setting [3]) came to 106 ± 15%. For the same compound, in data set [1], the half-life at 100 uM was ≥ 2.67 h.
For `CC[C@H](C)[C@@H]1NC(=O)[C@H](CCCNC(=N)N)NC(=O)[C@H](CC(=O)O)NC(=O)[C@H](CC(C)C)NC(=O)[C@H](CCCCN)NC(=O)[C@H](CC(C)C)NC(=O)CNC(=O)[C@H](Cc2ccccc2)NC(=O)[C@@H](NC(=O)CNC(=O)[C@H](CCCNC(=N)N)NC(=O)[C@H](CO)NC(=O)[C@H](CC(C)C)NC(=O)CNC(=O)[C@H](CCCNC(=N)N)NC(=O)[C@@H](N)CCC(=O)O)CSSC[C@@H](C(=O)O)NC(=O)CNC(=O)[C@H](CC(C)C)NC(=O)CNC(=O)[C@H](CO)NC(=O)[C@H](CCSC)NC(=O)[C@H](CO)NC(=O)CNC1=O` [BA] (H-ERGLSRGCFGLKLDRIGSMSGLGC-OH; disulfide 8-24 (inferred); N-terminus and C-terminus assumed) the same measures were 38 ± 10%, 113 ± 10% and 1.5 h.
In the case of `CCCCCCC(=O)N[C@@H](CCC(=O)O)C(=O)N[C@@H](CC(C)C)C(=O)N[C@@H](CO)C(=O)N[C@@H](CCCCN)C(=O)NCC(=O)N[C@H]1CSSC[C@@H](C(=O)O)NC(=O)CNC(=O)[C@H](CC(C)C)NC(=O)CNC(=O)[C@H](CO)NC(=O)[C@H](CCSC)NC(=O)[C@H](CO)NC(=O)CNC(=O)[C@H]([C@@H](C)CC)NC(=O)[C@H](CCCNC(=N)N)NC(=O)[C@H](CC(=O)O)NC(=O)[C@H](CC(C)C)NC(=O)[C@H](CCCCN)NC(=O)[C@H](CC(C)C)NC(=O)CNC(=O)[C@H](Cc2ccccc2)NC1=O` [BB] (Heptanoyl-ELSKGCFGLKLDRIGSMSGLGC-OH; disulfide 6-22 (inferred); C-terminus assumed), at NPR-B (NIH3T3, […]), the cGMP response relative to 1 uM CNP22 (%) at 0.01 µM was 32 ± 4% and the cGMP response relative to 1 uM CNP22 (%) at 1 µM amounted to 84 ± 19%. The compound further gave a half-life at 100 uM in data set [1] of 0.75 to 1.08 h.
In the case of `CC[C@H](C)[C@@H]1NC(=O)[C@H](CCCNC(=N)N)NC(=O)[C@H](CC(=O)O)NC(=O)[C@H](CC(C)C)NC(=O)[C@H](CCCCN)NC(=O)[C@H](CC(C)C)NC(=O)CNC(=O)[C@H](Cc2ccccc2)NC(=O)[C@@H](NC(=O)CNC(=O)[C@H](CCCCN)NC(=O)[C@H](CO)NC(=O)[C@H](CC(C)C)NC(=O)CNC(=O)[C@H](CCCCN)NC(=O)[C@H](CCCCN)NC(=O)[C@H](CC(N)=O)NC(=O)[C@H](C)NC(=O)CNC(=O)[C@H](CCCCN)NC(=O)[C@H](Cc2ccc(O)cc2)NC(=O)[C@H](CCCCN)NC(=O)[C@H](CCCNC(=N)N)NC(=O)[C@H](C)NC(=O)[C@H](CC(N)=O)NC(=O)[C@@H]2CCCN2C(=O)[C@H](Cc2c[nH]cn2)NC(=O)[C@H](CCC(=O)O)NC(=O)[C@@H](N)CCC(N)=O)CSSC[C@@H](C(=O)O)NC(=O)CNC(=O)[C@H](CC(C)C)NC(=O)CNC(=O)[C@H](CO)NC(=O)[C@H](CCSC)NC(=O)[C@H](CO)NC(=O)CNC1=O` [BL], on NPR-B (setting [2]), the “cGMP Response rel. to 1 uM CNP22, 10 nM” value worked out at 43 ± 15. Moreover, on NPR-B (setting [3]), the “cGMP Response rel. to 1 uM CNP22, 1 uM” value turned out to be 97 ± 27. For the same compound, the half-life at 100 uM in data set [1] was > 2.67 h.
With `CC[C@H](C)[C@@H]1NC(=O)[C@H](CCCNC(=N)N)NC(=O)[C@H](CC(=O)O)NC(=O)[C@H](CC(C)C)NC(=O)[C@H](CCCCN)NC(=O)[C@H](CC(C)C)NC(=O)CNC(=O)[C@H](Cc2ccccc2)NC(=O)[C@@H](NC(=O)CNC(=O)[C@H](CCCCN)NC(=O)[C@H](CO)NC(=O)[C@H](CC(C)C)NC(=O)CNC(=O)[C@H](CCCNC(=N)N)NC(=O)[C@H](C)NC(=O)[C@H](Cc2c[nH]c3ccccc23)NC(=O)[C@H](C)NC(=O)[C@H](C)NC(=O)[C@H](CCCNC(=N)N)NC(=O)[C@H](CO)NC(=O)[C@H](CCCCN)NC(=O)[C@@H](NC(=O)[C@H](CC(=O)O)NC(=O)[C@@H](NC(=O)[C@H](CCCNC(=N)N)NC(=O)[C@H](CC(C)C)NC(=O)[C@@H](N)CC(=O)O)C(C)C)[C@@H](C)O)CSSC[C@@H](C(=O)O)NC(=O)CNC(=O)[C@H](CC(C)C)NC(=O)CNC(=O)[C@H](CO)NC(=O)[C@H](CCSC)NC(=O)[C@H](CO)NC(=O)CNC1=O` [CC] (H-DLRVDTKSRAAWARGLSKGCFGLKLDRIGSMSGLGC-OH; disulfide 20-36 (inferred); N-terminus and C-terminus assumed), at NPR-B (setting [2]), the cGMP response relative to 1 uM CNP22 (%) at 0.01 µM came out at 34%. Further, the cGMP response relative to 1 uM CNP22 (%) at 1 µM on NPR-B (setting [3]) was determined as 101%. The half-life at 100 uM in data set [1] was > 2.67 h.

For the origin of these results see patent US8377884B2, “Variants of C-type natriuretic peptides” (Biomarin Pharmaceutical Inc., priority 2007, dated 2013).
